In patent US20260028338A1, “HETEROBIFUNCTIONAL COMPOUNDS AND METHODS OF TREATING DISEASE” (Halda Therapeutics OpCo, Inc., priority 2023, published 2026):

Experiments:
[1] = tested on: T-Rex 293 cell line SC cells lacking increased expression of BCL6 protein; test: Cellular growth inhibition assay, T-Rex 293 SC cells without doxycycline (CellTiter-Glo); format: cell-based; conditions: T-Rex 293 SC cells not exposed to doxycycline (no increased BCL6 expression), 72 hours, CellTiter-Glo 2.0
Protocol: (§1) Exemplary compounds were tested for ability to inhibit the proliferation of the following types of cells: (i) a T-Rex 293 cell line having increased expression of BCL6 protein due to exposure of doxycycline and (ii) a T-Rex 293 cell line lacking increased expression of BCL6 protein.
(§2) The following types of cells were prepared for this experiment: (i) a T-Rex 293 cell line having increased expression of BCL6 protein due to exposure to doxycycline and (ii) a T-Rex 293 cell line lacking increased expression of BCL6 protein. Ability of the test compounds to inhibit proliferation of the foregoing cell types was evaluated according to the procedures set forth below.
(§3) The doxycycline-inducible BCL6 protein expressing cell line was established using the following protocol: T-Rex 293 cells were purchased from Invitrogen (Cat #R71007) and transfected using Lipofectamine 2000 with the wild-type BCL6 protein sequence cloned into the pcDNA4/TO vector. Transfected cells were selected using 400 μg/mL Zeocin (Invitrogen Cat #R25001). Following selection, single clones were raised and maintained in Dulbecco's Modified Eagle Medium (DMEM) supplemented with 10% w/w Tetracycline-free fetal bovine serum (FBS) and 250 μg/mL Zeocin. Clones were analyzed for expression of BCL6 protein in the presence and absence of 10 ng/mL doxycycline (Sigma Cat #D9891), and a single doxycycline-inducible clone (hereinafter “SC”) was selected for use in downstream assays.
(§4) The SC cells were seeded on poly-D-lysine coated, black clear-bottom 384-well plates at 2500/well, in 25 μL Dulbecco's Modified Eagle Medium (DMEM) supplemented with 10% w/w Tetracycline-free fetal bovine serum (FBS) and 1% w/w pen-strep, with or without 10 ng/mL doxycycline. Pen-Strep is a commercially available mixture of penicillin G and streptomycin, which is used in mammalian cell culture media to prevent bacterial contamination. Dulbecco's Modified Eagle Medium (DMEM) supplemented with 10% w/w Tetracycline-free fetal bovine serum (FBS) and 1% w/w pen-strep, with or without 10 ng/mL doxycycline is herein referred to as Treatment Medium. Following seeding of cells in the plates, the plates were spun at 300×g for 30 seconds, then equilibrated to room temperature for 30 minutes, and then deposited in a humidified tissue culture incubator maintained at 37° C. with 5% CO2.
(§5) At 24 hours after seeding of the cells, dilutions of test compound were prepared in DMSO and dissolved in Treatment Medium, to achieve a final DMSO concentration of 0.5% w/w, thereby providing the Test Compound Solution. A 25 μL aliquot of the Test Compound Solution was added to cells in the well plates. An equal volume of a solution containing DMSO and Treatment Medium was used as a negative control. Following treatment of cells with Test Compound Solution or said equal volume of a solution containing DMSO and Treatment Medium, the plates were spun at 300×g for 30 seconds, and then left in an incubator for 72 hours.
(§6) At the end of the treatment duration, cell viability was quantified with CellTiter-Glo 2.0 reagent (Promega Cat #G9243). For this purpose, plates were equilibrated to room temperature for 30 minutes, and then 25 μL of CellTiter-Glo 2.0 reagent was added to cells in the plate wells. Plates were then agitated on a shaker for two minutes at 500 rpm and subsequently incubated at room temperature for 10 minutes. Following incubation, the plates were spun at 3000×g for 30 seconds, then sealed with an optical adhesive cover, and luminescence readings were measured with an EnVision Plate Reader (Perkin Elmer).
(§7) Data was normalized using zero luminescence for baseline. A four-parameter non-linear regression curve fit was applied to dose-response data in GraphPad Prism data analysis software to determine the half-maximal growth inhibitory concentration (GI50) for each test compound.

Su-DHL-4 cell line = test: Cellular growth inhibition assay, Su-DHL-4 cells (CellTiter-Glo); format: cell-based; conditions: Homo sapiens; Su-DHL-4 cell line (DLBCL), 72 hours, CellTiter-Glo 2.0
Protocol: (§8) Exemplary compounds were tested for ability to inhibit the proliferation of Su-DHL-4 and Farage cells. Su-DHL-4 and Farage cells are commercially available diffuse large B cell lymphoma cell lines (DLBCL).
(§9) Su-DHL-4 and Farage cells were purchased from American Type Cell Culture (ATCC Cat #CRL-2957/CRL-2630) and then seeded on poly-D-lysine coated, black clear-bottom 384-well plates at 3000/well in 25 μL Roswell Park Memorial Institute media (RPMI-1640) supplemented with 10% w/w Fetal bovine serum (FBS) and 1% w/w Pen-Strep. Pen-Strep is a commercially available mixture of penicillin G and streptomycin, which is used in mammalian cell culture media to prevent bacterial contamination. Roswell Park Memorial Institute media (RPMI-1640) supplemented with 10% w/w fetal bovine serum (FBS), and 1% w/w Pen-Strep is herein referred to as Treatment Medium. Following seeding of cells in the plates, the plates were spun at 300×g for 30 seconds, then equilibrated to room temperature for 30 minutes, and then deposited in a humidified tissue culture incubator maintained at 37° C. with 5% CO2.
as §5, §6, §7

[2] = molecular target: T1, biotinylated BCL6 (5-129) (Homo sapiens, UniProt P41182); test: SPR assay for binding affinity to BCL6; conditions: Biacore 8K, 25° C., immobilized biotinylated BCL6 (5-129)
T1 construct: biotinylated BCL6 (5-129) was diluted in 10 mM HEPES pH 7.4; biotin (biotinylated)
Protocol: Exemplary compounds were tested for ability to bind to B-cell lymphoma 6 (BCL6) protein.
Binding studies by surface plasmon resonance (SPR) were performed using a Biacore 8K (Cytiva) instrument at 25° C. Briefly, biotinylated BCL6 (5-129) was diluted in 10 mM HEPES pH 7.4, 150 mM NaCl, 0.05% Surfactant P20, 0.5 mM TCEP, 3% DMSO to 1-5 μg/mL and was immobilized on an SA sensor chip (Cytiva, BR100032), resulting in surface densities at 1000-3000 resonance units (RUs). Test compounds were serially diluted five times in the same buffer and were injected to the immobilized surface. Kinetic determination experiments were performed using single-cycle kinetics with 110-120 s contact time, 1000-4000 s dissociation time, 30 μL/min flow rate. Binding data were analyzed by using Biacore insight evaluation software to determine KD values for test compounds.

[3] = tested on: T-Rex 293 cell line SC cells having increased expression of BCL6 protein; test: Cellular growth inhibition assay, T-Rex 293 SC cells with doxycycline (CellTiter-Glo); format: cell-based; conditions: T-Rex 293 SC cells with 10 ng/mL doxycycline (increased BCL6 expression), 72 hours, CellTiter-Glo 2.0
Protocol: as §1, §2, §3, §4, §5, §6, §7

[4] = molecular target: T2, His-tagged BRD4 BD1 (46-168) (Homo sapiens, UniProt O60885); test: AlphaLISA competition assay, BRD4 BD1; format: binding; conditions: BRD4-BD1, AlphaLISA competition with biotinylated histone H4K5/8/12/16(Ac) peptide, 10 nM
T2 construct: His-tagged BRD4 BD1 (46-168) and biotinylated histone H4K5/8/12/16(Ac) peptide
Protocol: (§10) Exemplary compounds were tested for ability to bind to bromodomain-containing protein 4 (BRD4).
(§11) Compounds were tested using a developed AlphaLISA competition assay. Briefly, His-tagged BRD4 BD1 (46-168) and biotinylated histone H4K5/8/12/16(Ac) peptide (ANASPEC, AS-64989-1) were incubated in 20 mM HEPES pH 7.5, 100 mM NaCl, 0.5 mM TCEP, 0.1% BSA, 0.02% CHAPS at a final concentration of 10 nM. Test compounds were serially diluted ten times in the same buffer and were added to the BRD4-peptide mixture for 1 h incubation at room temperature. Following incubation, Streptavidin AlphaLISA acceptor beads (PerkinElmer, AL125M) were added to BRD4-peptide-compound samples to a final concentration of 0.01 mg/mL for a 0.5 h incubation at room temperature in the dark. Following incubation, the same amount of Nickel Chelate Alpha donor beads (PerkinElmer, AS101M) were added to the samples for a final 1 h incubation. The AlphaLISA signals were measured using an EnVision plate reader (PerkinElmer). The data were uploaded to Screening Ultra (Dotmatics) to determine the half-maximal inhibitory concentration (IC50) for each test compound.

[5] = molecular target: T3, His-tagged BRD4 BD2 (333-460) (Homo sapiens, UniProt O60885); test: AlphaLISA competition assay, BRD4 BD2; format: binding; conditions: BRD4-BD2, AlphaLISA competition with biotinylated histone H4K5/8/12/16(Ac) peptide, 20 nM
T3 construct: The same assay was developed for His-tagged BRD4 BD2 (333-460) and biotinylated histone H4K5/8/12/16(Ac) peptide
Protocol: as §10, §11
The same assay was developed for His-tagged BRD4 BD2 (333-460) and biotinylated histone H4K5/8/12/16(Ac) peptide at a final concentration of 20 nM.

Farage cell line = test: Cellular growth inhibition assay, Farage cells (CellTiter-Glo); format: cell-based; conditions: Farage cell line (DLBCL), 72 hours, CellTiter-Glo 2.0
Protocol: as §8, §9, §5, §6, §7

SMILES | GI50 [1] | GI50 (Su-DHL-4 cell line) | Kd [2] | GI50 [3] | IC50 [4] | IC50 [5] | GI50 (Farage cell line)
CCS(=O)(=O)Nc1ccc(Oc2cccc(OCCN3CCN(CC4CCN(c5ncc(Cl)c(Nc6ccc7c(c6)cc(OCC(=O)NC)c(=O)n7C)n5)CC4)CC3)c2)c(-c2cn(C)c(=O)c3[nH]ccc23)c1 [Compound I-4] | < 500 nM | < 500 nM | > 100 nM | < 500 nM | 50 to 500 nM | 5 to 50 nM | –
CNC(=O)COc1cc2cc(Nc3nc(N4CCC(CN5CCN(Cc6cccc(Oc7ccc(C(C)(C)O)cc7-c7cn(C)c(=O)c8[nH]ccc78)c6)CC5)CC4)ncc3Cl)ccc2n(C)c1=O [Compound I-39] | < 500 nM | – | 10 to 100 nM | < 500 nM | 5 to 50 nM | < 5 nM | < 500 nM
CNC(=O)COc1cc2cc(Nc3nc(N4CCC(CN5CCN(CC[C@H]6C[C@@H](Oc7ccc(C(C)(C)O)cc7-c7cn(C)c(=O)c8[nH]ccc78)C6)CC5)CC4)ncc3Cl)ccc2n(C)c1=O [Compound I-46] | < 500 nM | – | 1 to 10 nM | < 500 nM | < 5 nM | < 5 nM | < 500 nM
CNC(=O)COc1cc2cc(Nc3nc(N4CCN(CCN5CCN(Cc6cccc(Oc7ccc(C(C)(C)O)cc7-c7cn(C)c(=O)c8[nH]ccc78)c6)CC5)CC4)ncc3Cl)ccc2n(C)c1=O [Compound I-47] | < 500 nM | – | 1 to 10 nM | < 500 nM | < 5 nM | < 5 nM | < 500 nM
CNC(=O)COc1cc2cc(Nc3nc(N4CCC(CN5CCN(Cc6ccc(Oc7ccc(C(C)(C)O)cc7-c7cn(C)c(=O)c8[nH]ccc78)cc6)CC5)CC4)ncc3Cl)ccc2n(C)c1=O [Compound I-38] | < 500 nM | – | > 100 nM | < 500 nM | < 5 nM | < 5 nM | < 500 nM
CNC(=O)COc1cc2cc(Nc3nc(N4CCC(N5CCN(Cc6ccc(Oc7ccc(C(C)(C)O)cc7-c7cn(C)c(=O)c8[nH]ccc78)cc6)CC5)CC4)ncc3Cl)ccc2n(C)c1=O [Compound I-48] | < 500 nM | – | 10 to 100 nM | < 500 nM | < 5 nM | < 5 nM | < 500 nM
CNC(=O)COc1cc2cc(Nc3nc(N4CCC(CN5CCCC6(C5)CN(C[C@H]5C[C@@H](Oc7ccc(C(C)(C)O)cc7-c7cn(C)c(=O)c8[nH]ccc78)C5)C6)CC4)ncc3Cl)ccc2n(C)c1=O [Compound I-44] | 500 to 1500 nM | – | 1 to 10 nM | < 500 nM | < 5 nM | < 5 nM | < 500 nM
CNC(=O)COc1cc2cc(Nc3nc(N4CCCC5(CN(C[C@H]6C[C@@H](Oc7ccc(C(C)(C)O)cc7-c7cn(C)c(=O)c8[nH]ccc78)C6)C5)C4)ncc3Cl)ccc2n(C)c1=O [Compound I-42] | > 3000 nM | – | < 1 nM | < 500 nM | < 5 nM | > 500 nM | 1500 to 3000 nM
CCS(=O)(=O)Nc1ccc(Oc2cccc(OCCOCCOC3CCN(c4ncc(Cl)c(Nc5ccc6c(c5)cc(OCC(=O)NC)c(=O)n6C)n4)CC3)c2)c(-c2cn(C)c(=O)c3[nH]ccc23)c1 [Compound I-1, 2-[[6-[[5-chloro-2-[4-[2-[2-[3-[4-(ethylsulfonylamino)-2-(6-methyl-7-oxo-1H-pyrrolo[2,3-c]pyridin-4-yl)phenoxy]phenoxy]ethoxy]ethoxy]-1-piperidyl]pyrimidin-4-yl]amino]-1-methyl-2-oxo-3-quinolyl]oxy]-N-methyl-acetamide] | – | < 500 nM | – | – | – | – | –
CNC(=O)COc1cc2cc(Nc3nc(N4CCC(N5CCN(Cc6cccc(Oc7ccc(C(C)(C)O)cc7-c7cn(C)c(=O)c8[nH]ccc78)c6)CC5)CC4)ncc3Cl)ccc2n(C)c1=O [Compound I-40] | < 500 nM | – | 10 to 100 nM | < 500 nM | < 5 nM | < 5 nM | < 500 nM
CNC(=O)COc1cc2cc(Nc3nc(N4CCCC5(CN(C[C@H]6C[C@H](Oc7ccc(C(C)(C)O)cc7-c7cn(C)c(=O)c8[nH]ccc78)C6)C5)C4)ncc3Cl)ccc2n(C)c1=O [Compound I-41] | > 3000 nM | – | 1 to 10 nM | < 500 nM | < 5 nM | > 500 nM | 1500 to 3000 nM
